Measured values as given in patent US10287271B2, “Indole compounds having antiprotozoal activity and its use as well as methods for producing the same” (TECHNISCHE UNIVERSITAET BRAUNSCHWEIG, priority 2015, dated 2019).

System: NF54-luc P. falciparum
Assay: luciferase-based viability assay, erythrocytic stages of transgenic NF54-luc P. falciparum
Assay type: cell-based, Plasmodium falciparum
Details: for inhibition at 3 µM / EC50 / inhibition at 30 µM: Plasmodium falciparum; for inhibition at 3 µM / inhibition at 30 µM: NF54, 48 hours; for inhibition at 3 µM: 3 μM test compound; for EC50: erythrocytic stages NF54-luc, 48 hours incubation, titration; for inhibition at 30 µM: 30 μM test compound
Experimental: Erythrocytic stages of transgenic NF54-luc P. falciparum were used for the luciferase-based viability assay. First, the culture was dispensed in triplicate into white 96-well flat bottom plates (each well contains 250 ul) (NUNC, Denmark) with parasitemia of 0.5-1%. Then the cultures were incubated in the presence of a 30 μM concentration of the test compounds for 48 hours (37° C., 90% N2, 5% CO2, and 5% O2). Subsequently, 100 ul RPMI1640 media was removed from each well and a 100 μL volume of the Bright-Glo® substrate solution was added to each well. One of the cleavage products of the reaction is light, which was measured by a FLUOROSKAN FL luminometer (Thermo) machine; thereby detecting the amount of living parasites. In case the inhibition of the proliferation exceeded 50%, the experiments were repeated with 3 μM solutions. […] The EC50 value is the half maximal effective concentration (the concentration at which half maximal inhibition is observed). Untreated cultures were used as negative controls and to calculate the inhibition rate (0% inhibition of parasite growth). Blasticidin (Sigma-Aldrich, St. Louis, Mo.), a drug used for selection of transfected parasites, was included as a positive control on each plate and gave >90% inhibition of parasite growth at 2 μg/mL.

Row | SMILES | inhibition at 3 µM [%] | EC50 [µM] | inhibition at 30 µM [%] | inhibition of parasite growth (positive control at 2 μg/mL) [%]
1 | COc1ccc2[nH]cc(-c3c(-c4c[nH]c5ccc(Cl)cc45)c(=O)c3=O)c2c1 [KuHL102, 3-(5-Chloro-1H-indol-3-yl)-4-(5-methoxy-1H-indol-3-yl)cyclobut-3-ene-1,2-dione] | 87 ± 0.5 | 1.52 |  | 
2 | COc1ccc2[nH]cc(-c3c(-c4c[nH]c5ccccc45)c(=O)c3=O)c2c1 [KuHL049, 3-(1H-Indol-3-yl)-4-(5-methoxy-1H-indol-3-yl)cyclobut-3-ene-1,2-dione] | 18.3 ± 5 |  |  | 
3 | O=c1c(-c2c(-c3ccccc3)[nH]c3ccccc23)c(-c2c(-c3ccccc3)[nH]c3ccccc23)c1=O [KuHL009, 3,4-Bis(2-phenyl-1H-indol-3-yl)cyclobut-3-ene-1,2-dione] | 41.1 ± 0.6 | 2.47 | 98.9 ± 0.8 | 
4 | Cc1[nH]c2ccccc2c1-c1c(-c2c[nH]c3ccccc23)c(=O)c1=O [KuHL025, 3-(1H-Indol-3-yl)-4-(2-methyl-1H-indol-3-yl)cyclobut-3-ene-1,2-dione] | 23.4 ± 5.4 | > 30 | 98.8 ± 0.5 | 
5 | COc1ccc2[nH]cc(-c3c(-c4c(-c5ccccc5)[nH]c5ccccc45)c(=O)c3=O)c2c1 [KuHL058, 3-(5-Methoxy-1H-indol-3-yl)-4-(2-phenyl-1H-indol-3-yl)cyclobut-3-ene-1,2-dione] | 22.4 ± 2.7 |  |  | 
6 | N#Cc1ccc2[nH]cc(-c3c(-c4c[nH]c5ccccc45)c(=O)c3=O)c2c1 [KuHL122, 3-[2-(1H-Indol-3-yl)-3,4-dioxocyclobut-1-ene-1-yl]-1H-indol-5-carbonitrile] | 26.8 ± 1.6 |  |  | 
7 | O=c1c(-c2c[nH]c3ccc(Br)cc23)c(-c2c(-c3ccccc3)[nH]c3ccccc23)c1=O [KuHL071, 3-(5-Bromo-1H-indol-3-yl)-4-(2-phenyl-1H-indol-3-yl)cyclobut-3-ene-1,2-dione] | 16 ± 0.7 |  |  | 
8 | Cc1[nH]c2ccccc2c1-c1c(-c2cn(C)c3ccc(Br)cc23)c(=O)c1=O [KuHL077, 3-(5-Bromo-1-methyl-1H-indol-3-yl)-4-(2-methyl-1H-indol-3-yl)cyclobut-3-ene-1,2-dione] | 12.7 ± 2.8 |  |  | 
9 | Cc1[nH]c2ccccc2c1-c1c(-c2cn(C)c3ccccc23)c(=O)c1=O [KuHL050, 3-(1-Methyl-1H-indol-3-yl)-4-(2-methyl-1H-indol-3-yl)cyclobut-3-ene-1,2-dione] | 59.6 ± 0.2 | 2.67 | 99.3 ± 0.3 | 
10 | O=c1c(-c2c[nH]c3ccccc23)c(-c2c(-c3ccccc3)[nH]c3ccccc23)c1=O [KuHL044, 3-(1H-Indol-3-yl)-4-(2-phenyl-1H-indol-3-yl)cyclobut-3-ene-1,2-dione] | 65 ± 2.8 | 6.38 | 99.7 ± 0.1 | 
11 | Cc1[nH]c2ccccc2c1-c1c(-c2c(-c3ccccc3)[nH]c3ccccc23)c(=O)c1=O [KuHL026, 3-(2-Methyl-1H-indol-3-yl)-4-(2-phenyl-1H-indol-3-yl)cyclobut-3-ene-1,2-dione] | 41.1 ± 1.7 | 9.26 | 98.4 ± 0.5 | 
12 | COc1ccc2[nH]cc(-c3c(-c4c[nH]c5ccc(OCc6ccccc6)cc45)c(=O)c3=O)c2c1 [KuHL136, 3-[5-(Benzyloxy)-1H-indol-3-yl]-4-(5-methoxy-1H-indol-3-yl)cyclobut-3-ene-1,2-dione] | 21.7 ± 2.5 |  |  | 
13 | COc1ccc2[nH]cc(-c3c(-c4c[nH]c5ccc(Br)cc45)c(=O)c3=O)c2c1 [KuHL047, 3-(5-Bromo-1H-indol-3-yl)-4-(5-methoxy-1H-indol-3-yl)cyclobut-3-ene-1,2-dione] | 100 | 0.47 | 98.8 ± 0.7 | 
14 | Cn1cc(-c2c(-c3c(-c4ccccc4)[nH]c4ccccc34)c(=O)c2=O)c2ccccc21 [KuHL072, 3-(1-Methyl-1H-indol-3-yl)-4-(2-phenyl-1H-indol-3-yl)cyclobut-3-ene-1,2-dione] | 67.7 ± 0.7 | 1.72 |  | 
15 | O=c1c(-c2c[nH]c3ccccc23)c(-c2c[nH]c3ccc(Cl)cc23)c1=O [KuHL118, 3-(5-Chloro-1H-indol-3-yl)-4-(1H-indol-3-yl)cyclobut-3-ene-1,2-dione] | 44.7 ± 0.5 |  |  | 
16 | COc1ccc2[nH]cc(-c3c(-c4c[nH]c5ccc(C#N)cc45)c(=O)c3=O)c2c1 [KuHL103, 3-[2-(5-Methoxy-1H-indol-3-yl)-3,4-dioxocyclobut-1-ene-1-yl]-1H-indol-5-carbonitrile] | 26.8 ± 1.1 |  |  | 
17 | Cn1cc(-c2c(-c3c[nH]c4ccccc34)c(=O)c2=O)c2ccccc21 [KuHL032, 3-(1H-Indol-3-yl)-4-(1-methyl-1H-indol-3-yl)cyclobut-3-ene-1,2-dione] | 52 ± 1.8 | 2.97 | 98.7 ± 1.1 | 
18 | Cc1[nH]c2ccccc2c1-c1c(-c2c(C)[nH]c3ccccc23)c(=O)c1=O [KuHL012, 3,4-Bis(2-methyl-1H-indol-3-yl)cyclobut-3-ene-1,2-dione] | 18.3 ± 6.3 |  | 77.8 ± 5.9 | 
19 | COc1ccc2[nH]cc(-c3c(-c4cn(C)c5ccccc45)c(=O)c3=O)c2c1 [KuHL057, 3-(5-Methoxy-1H-indol-3-yl)-4-(1-methyl-1H-indol-3-yl)cyclobut-3-ene-1,2-dione] |  |  | 13.6 ± 3.9 | 
20 | COc1ccc2[nH]cc(-c3c(-c4c[nH]c5ccc(I)cc45)c(=O)c3=O)c2c1 [KuHL101, 3-(5-Iodo-1H-indol-3-yl)-4-(5-methoxy-1H-indol-3-yl)cyclobut-3-ene-1,2-dione] | 99.1 ± 0.4 | 0.65 |  | 
21 | O=c1c(-c2c[nH]c3ccccc23)c(-c2c[nH]c3ccc(I)cc23)c1=O [KuHL117, 3-(1H-indol-3-yl)-4-(5-iodo-1H-indol-3-yl)cyclobut-3-ene-1,2-dione] | 31.3 ± 2.7 |  |  | 
22 | O=c1c(-c2c[nH]c3ccccc23)c(-c2c[nH]c3ccccc23)c1=O [KuHL043, 3,4-Bis(1H-indol-3-yl)cyclobut-3-ene-1,2-dione] | 17.9 ± 3.3 | 8.33 | 99.2 ± 0.2 | 
23 | COc1ccc2[nH]cc(-c3c(-c4c[nH]c5ccc(F)cc45)c(=O)c3=O)c2c1 [KuHL113, 3-(5-Fluoro-1H-indol-3-yl)-4-(5-methoxy-1H-indol-3-yl)cyclobut-3-ene-1,2-dione] | 19.3 ± 3.1 |  |  | 
24 | CN(CC[C@H](N)CC(=O)N[C@H]1C=C[C@H](n2ccc(N)nc2=O)O[C@@H]1C(=O)O)C(=N)N [Blasticidin, reference compound] |  |  |  | > 90
25 | COc1ccc2[nH]cc(-c3c(-c4c[nH]c5ccc(OC)cc45)c(=O)c3=O)c2c1 [KuHL048, 3,4-Bis(5-methoxy-1H-indol-3-yl)cyclobut-3-ene-1,2-dione] | 19.7 ± 3.6 |  | 79.3 ± 1.3 | 
26 | COc1ccc2[nH]cc(-c3c(-c4c(C)[nH]c5ccccc45)c(=O)c3=O)c2c1 [KuHL018, 3-(5-Methoxy-1H-indol-3-yl)-4-(2-methyl-1H-indol-3-yl)cyclobut-3-en-1,2-dione] | 34.2 ± 8 | 10 | 99.6 ± 0.2 | 
27 | O=c1c(-c2c[nH]c3ccccc23)c(-c2c[nH]c3ccc(Br)cc23)c1=O [KuHL037, 3-(5-Bromo-1H-indol-3-yl)-4-(1H-indol-3-yl)cyclobut-3-ene-1,2-dione] | 65.9 ± 1.8 | 3.02 | 99.5 ± 0.4 | 
28 | Cc1[nH]c2ccccc2c1-c1c(-c2c[nH]c3ccc(Br)cc23)c(=O)c1=O [KuHL027, 3-(5-Bromo-1H-indol-3-yl)-4-(2-methyl-1H-indol-3-yl)cyclobut-3-ene-1,2-dione] | 45.6 ± 1.8 | 30.5 | 99.3 ± 0.4 | 
